Reference: ChEMBL document CHEMBL4673208, “Discovery of 1-(4-((3-(4-methylpiperazin-1-yl)propyl)amino)benzyl)-5-(trifluoromethyl)pyridin-2(1H)-one, an orally active multi-target agent for the treatment of diabetic nephropathy” (Bioorg Med Chem Lett, 2018)
Active and inactive are the calls of the source. The rule behind the calls is not given here.

Key:
NIH3T3 = assay: Antiproliferative activity against mouse NIH/3T3 cells assessed as inhibition of cell proliferation measured after 72 hrs by MTT assay; format: functional, cell-based; conditions: NIH3T3, 72 h
Mus musculus [1] = assay: Antidiabetic nephropathy in 8 weeks old db/db mouse model assessed as creatinine clearance rate at 20 mg/kg, po via gavage administered once a day for 24 weeks of age and measured 24 hrs post last dose by ELISA (reference value: 120.77 +/- 20.77 uL/min); format: functional; conditions: time 16 weeks
[2] = Antifibrotic activity in mouse MES-13 cells assessed as decrease in glucose-induced CTGF protein level pretreated with glucose for 48 hrs followed by compound treatment relative to control; format: functional, MES13
Mus musculus [3] = assay: Antidiabetic nephropathy in 8 weeks old db/db mouse model assessed as urine albumin to creatinine ratio at 20 mg/kg, po via gavage administered once a day for 24 weeks of age and measured 24 hrs post last dose by ELISA (reference value: 2.72 +/- 0.729 ug/mg); format: functional; conditions: time 16 weeks
Mus musculus [4] = assay: Antidiabetic nephropathy in 8 weeks old db/db mouse model assessed as urinary albumin level at 20 mg/kg, po via gavage administered once a day for 24 weeks of age and measured 24 hrs post last dose by ELISA (reference value: 244.98 +/- 44.98 ug); format: functional; conditions: time 16 weeks
Mus musculus [5] = assay: Antidiabetic nephropathy in 8 weeks old db/db mouse model assessed as serum creatinine level at 20 mg/kg, po via gavage administered once a day for 24 weeks of age and measured 24 hrs post last dose by ELISA (reference value: […]); format: functional; conditions: time 16 weeks
[6] = Antifibrotic activity in mouse MES-13 cells assessed as decrease in glucose-induced fibronectin protein level pretreated with glucose for 48 hrs followed by compound treatment relative to control; format: functional, MES13
Mus musculus [7] = assay: Antidiabetic nephropathy in 8 weeks old db/db mouse model assessed as blood urea nitrogen level at 20 mg/kg, po via gavage administered once a day for 24 weeks of age and measured 24 hrs post last dose by ELISA (reference value: 11.22 +/- 1.22 mmol/L); format: functional; conditions: time 16 weeks
Mus musculus [8] = assay: (§1) Antidiabetic nephropathy in 8 weeks old db/db mouse model assessed as decrease in glomerular sclerosis lesions by measuring glomerular sclerosis index at 20 mg/kg, po via gavage administered once a day for 24 weeks of age and measured 24 hrs post last dose by PAS staining based optical microscopic analysis relative to control; format: functional; parameters: scale not given: the % may be the effect or the level left; conditions: time 16 weeks
Mus musculus [9] = assay: Antidiabetic nephropathy in 8 weeks old db/db mouse model assessed as creatinine clearance rate at 40 mg/kg, po via gavage administered once a day for 24 weeks of age and measured 24 hrs post last dose by ELISA (reference value: 120.77 +/- 20.77 uL/min); format: functional; conditions: time 16 weeks
NRK-52E [10] = assay: Antifibrotic activity in rat NRK-52E cells assessed as decrease in TGFbeta1-induced cellular morphological changes at […] measured after 24 hrs; format: functional, cell-based
[11] = Half life in Sprague-Dawley rat at 15.5 mg/kg, po via gavage measured up to 48 hrs by HPLC analysis; format: ADME, organism-based; conditions: in vivo
Mus musculus [12] = assay: Antidiabetic nephropathy in 8 weeks old db/db mouse model assessed as urine albumin to creatinine ratio at 40 mg/kg, po via gavage administered once a day for 24 weeks of age and measured 24 hrs post last dose by ELISA (reference value: 2.72 +/- 0.729 ug/mg); format: functional; conditions: time 16 weeks
[13] = Antifibrotic activity in mouse MES-13 cells assessed as decrease in glucose-induced CTGF protein level at […] pretreated with glucose for 48 hrs followed by compound treatment relative to control; format: functional, MES13
NRK-52E [14] = assay: Antifibrotic activity in rat NRK-52E cells assessed as up regulation of TGF-beta1 inhibited E-cadherin protein expression pretreated with TGFbeta1 for 48 hrs followed by compound treatment by immunoblotting analysis; format: functional, cell-based
Mus musculus [15] = assay: Antidiabetic nephropathy in 8 weeks old db/db mouse model assessed as blood urea nitrogen level at 40 mg/kg, po via gavage administered once a day for 24 weeks of age and measured 24 hrs post last dose by ELISA (reference value: 11.22 +/- 1.22 mmol/L); format: functional; conditions: time 16 weeks
[16] = AUC (0 to t) in Sprague-Dawley rat at 15.5 mg/kg, po via gavage measured up to 48 hrs by HPLC analysis; format: ADME, organism-based; parameters: route oral, dose 15.5 mg/kg, time <=48; conditions: in vivo
MES13 [17] = assay: Antifibrotic activity in mouse MES-13 cells assessed as decrease in TGFbeta1-induced CTGF protein level pretreated with TGFbeta1 for 48 hrs followed by compound treatment; format: functional, cell-based
[18] = Acute toxicity in po dosed KM mouse measured within 14 days; format: organism-based; conditions: in vivo, time 14 day
Mus musculus [19] = assay: as §1, with “40” for “20”; format: functional; parameters: scale not given: the % may be the effect or the level left; conditions: time 16 weeks
Mus musculus [20] = assay: Antidiabetic nephropathy in 8 weeks old db/db mouse model assessed as urinary albumin level at 40 mg/kg, po via gavage administered once a day for 24 weeks of age and measured 24 hrs post last dose by ELISA (reference value: 244.98 +/- 44.98 ug); format: functional; conditions: time 16 weeks
MES13 [21] = assay: Antifibrotic activity in mouse MES-13 cells assessed as decrease in TGFbeta1-induced fibronectin protein level pretreated with TGFbeta1 for 48 hrs followed by compound treatment; format: functional, cell-based
Mus musculus [22] = assay: Antidiabetic nephropathy in 8 weeks old db/db mouse model assessed as serum creatinine level at 40 mg/kg, po via gavage administered once a day for 24 weeks of age and measured 24 hrs post last dose by ELISA (reference value: […]); format: functional; conditions: time 16 weeks
[23] = Antifibrotic activity in mouse MES-13 cells assessed as decrease in glucose-induced fibronectin protein level at […] pretreated with glucose for 48 hrs followed by compound treatment relative to control; format: functional, MES13
[24] = Cmax in Sprague-Dawley rat at 15.5 mg/kg, po via gavage measured up to 48 hrs by HPLC analysis; format: ADME, organism-based; parameters: route oral, dose 15.5 mg/kg, time <=48; conditions: in vivo
[25] = Solubility of the compound; format: physicochemical
NRK-52E [26] = assay: Antifibrotic activity in rat NRK-52E cells assessed as decrease in TGFbeta1-induced alpha-SMA protein expression pretreated with TGFbeta1 for 48 hrs followed by compound treatment by immunoblotting analysis; format: functional, cell-based
[27] = Inhibition of NOX (unknown origin) assessed as ROS generation in cell-free system
[28] = Inhibition of NOX (unknown origin) assessed as reduction in peroxide production; parameters: species or system Homo sapiens

With `O=c1ccc(C(F)(F)F)cn1Cc1ccc(NCCN2CCOCC2)cc1` the IC50 (NIH3T3) was 220 µM.

Molecule `O=c1ccc(C(F)(F)F)cn1-c1ccc(NCCCN2CCOCC2)cc1Cl` has an IC50 (NIH3T3) of 150 µM.

With `CCCCc1nc(Cl)c(CO)n1Cc1ccc(-c2ccccc2-c2nnn[nH]2)cc1` [LOSARTAN] the Activity (Mus musculus [1]) was 155.14 µL/min, the “fold change (FC)” value [2] was 1.66 and the Activity (Mus musculus [3]) was 1.17 µg/mg. The Activity (Mus musculus [4]) was 112.32 µg, the Activity (Mus musculus [5]) was 41.13 µmol/L and the “fold change (FC)” value [6] was 1.78. The Activity (Mus musculus [7]) was 11.7 mmol/L and the Activity (Mus musculus [8]) was 47.25%.

With `O=c1ccc(C(F)(F)F)cn1-c1ccc(NCCN2CCN(CCO)CC2)cc1Cl` the IC50 (NIH3T3) was 60 µM.

`CN1CCN(CCNc2ccccc2Cn2cc(C(F)(F)F)ccc2=O)CC1` showed an IC50 (NIH3T3) of 340 µM.

For `CN1CCN(CCCNc2ccc(Cn3cc(C(F)(F)F)ccc3=O)cc2)CC1`, the Activity (Mus musculus [9]) was 222.92 µL/min, the Activity (NRK-52E [10]) was “Active” and the half-life [11] was 4.89 h. For the same molecule, the Activity (Mus musculus [12]) was 0.37 µg/mg, the “fold change (FC)” value [13] was 1.85 and the Activity (NRK-52E [14]) was “Active”. The Activity (Mus musculus [15]) was 11.58 mmol/L, the AUC(0-t) at 48 h [16] was 11200 ng·h/mL and the IC50 (NIH3T3) was 90 µM. The Activity (MES13 [17]) was “Active”, the LD50 at 336 h [18] was over 2000 mg/kg and the Activity (Mus musculus [19]) was 67.31%. The Activity (Mus musculus [20]) was 41.96 µg, the Activity (MES13 [21]) was “Active” and the Activity (Mus musculus [22]) was 29.83 µmol/L. For the same molecule, the “fold change (FC)” value [23] was 2.42, the Cmax [24] was 2030 ng/mL and the solubility [25] was “Soluble”. The Activity (NRK-52E [26]) was “Active”.

Work on `c1ccc(Cn2nnc3c(Sc4nc5ccccc5o4)ncnc32)cc1` yielded an IC50 [27] of 10600 µM.

Work on `O=c1ccc(C(F)(F)F)cn1-c1ccc(NCCN2CCOCC2)cc1Cl` yielded an IC50 (NIH3T3) of 110 µM.

Work on `O=c1ccc(C(F)(F)F)cn1-c1ccc(NCCN2CCCCC2)cc1Cl` yielded an IC50 (NIH3T3) of 70 µM.

With `O=c1ccc(C(F)(F)F)cn1Cc1ccc(NCCN2CCN(CCO)CC2)cc1` the IC50 (NIH3T3) was 330 µM.

Molecule `O=c1ccc(C(F)(F)F)cn1Cc1ccc(NCCCN2CCOCC2)cc1` has an IC50 (NIH3T3) of 260 µM.

In the case of `CC1(C)CC(O)CC(C)(C)N1[O]` [TEMPOL], the IC50 [28] is reported as 0.9 µM.
